US20240335544A1, “M6PR CELL SURFACE RECEPTOR BINDING COMPOUNDS AND CONJUGATES” (LYCIA THERAPEUTICS, INC., priority 2021, published 2024)
Entries after “also recorded” stand apart in the source; their conditions may differ. Read-outs that look alike come from different tables or passages of the source. Values belong to the compound of their own block, whether it stands above or below them.

Legend:
[1] = Serum pharmacokinetic analysis of rIgG1 (anti-IgG2a) antibody conjugates; type: in vivo, mice; details: intravenous 10 μg/mouse, serum 0.5-24 h, compared to Compound I-7 conjugate
Procedure: A pharmacokinetic analysis of the rIgG1 (anti-IgG2a) antibody conjugates described in the previous example was performed in mice. In particular, […] mice were intravenously administered each rIgG1 antibody conjugate at 10 μg/mouse (5 mice per group). Blood was collected at 0.5, 1, 2, 6, and 24 hours and serum rIgG1 was analyzed using an ELISA kit (Abcam) according to the manufacturer's instructions. Samples were run across 3 different plates with unconjugated rIgG1 controls (UNLB-anti-IgG2a rIgG1) included on all 3 plates. FIGS. 8A-8C show the serum levels of anti-IgG2a conjugated to Compound I-7 (dar8) and (dar4) (FIG. 8A), anti-IgG2a conjugated to Compound I-10 and anti-IgG2a conjugated to Compound I-11 (FIG. 8B), and anti-IgG2a conjugated to Compound I-9 and anti-IgG2a conjugated to Compound I-12 (FIG. 8C) over time.

[2] = test system: Jurkat cells; assay: Conjugate-mediated uptake of IgG2a-Alexa488 into Jurkat cells; type: cell-based; details: for uptake into Jurkat cells (cell fluorescence vs conjugate concentration): DAR 9-11 per conjugate
Procedure: (§1) The anti-IgG2a conjugates were bound to IgG2a-Alexa488, as follows: equal molar ratios of anti-IgG2a and IgG2a-Alexa488 were added in tissue culture media for 30 minutes at room temperature. The resulting anti-IgG2a:IgG2a antibody-Alexa488 compositions were added to Jurkat cells (100 k cells/50 ul per well, n=2), and Alexa488 fluorescence levels were measured (via Alexa488 measurement) at 1 hour and 24 hours by flow cytometry. As the fluorescently labelled target (IgG2a antibody) accumulates in cells, the fluorescence presents a way to measure total intracellular uptake by cells over time.

[3] = target: T1, CI-M6PR (Homo sapiens, UniProt P11717); assay: Human CI-M6PR binding assay (ELISA); parameters: purchased R&D 6418-GR-050
Procedure: Nunc black solid bottom MaxiSorp plates were allowed to incubate overnight at 4° C. coated with 1 μg/mL of recombinant human CI-M6PR protein (R&D, 6418-GR-050) in 50 μL PBS. The next day, coating was decanted and plates were washed 3× with PBS. Wells were blocked with 350 μL of 3% BSA-PBS for 1 hour at room temperature. […] 50 μL of diluted conjugates were added to the plate and allowed to incubate at room temperature for 2 hours. After incubation, solutions in plate were decanted and washed with 350 μL of 0.05% PBS-Tween20 three times, drying the plate each wash on a clean paper towel. 50 μL of peroxidase AffiniPure Mouse Anti-Human IgG (Jackson Immuno, 209-035-088) diluted in 3% BSA-PBS to […] was added to the plate and allowed to incubate for 1 hour at room temperature in the dark. After incubation, solutions in plate were decanted and washed with 350 μL of 0.05% PBS-Tween20 3 times, drying the plate each wash on a clean paper towel. […] 50 μL of QuantaBlu solution was added to wells and allowed to incubate for 5-10 minutes at room temperature. After incubation, plates were read on a Perkin Elmer EnVision using photometric 340 and Umbelliferone 460 filter sets for excitation and emission, respectively. Data analysis and non-linear curve-fitting was performed using GraphPad Prism.
Target sequence in this assay (P11717 41-1365 limits assumed): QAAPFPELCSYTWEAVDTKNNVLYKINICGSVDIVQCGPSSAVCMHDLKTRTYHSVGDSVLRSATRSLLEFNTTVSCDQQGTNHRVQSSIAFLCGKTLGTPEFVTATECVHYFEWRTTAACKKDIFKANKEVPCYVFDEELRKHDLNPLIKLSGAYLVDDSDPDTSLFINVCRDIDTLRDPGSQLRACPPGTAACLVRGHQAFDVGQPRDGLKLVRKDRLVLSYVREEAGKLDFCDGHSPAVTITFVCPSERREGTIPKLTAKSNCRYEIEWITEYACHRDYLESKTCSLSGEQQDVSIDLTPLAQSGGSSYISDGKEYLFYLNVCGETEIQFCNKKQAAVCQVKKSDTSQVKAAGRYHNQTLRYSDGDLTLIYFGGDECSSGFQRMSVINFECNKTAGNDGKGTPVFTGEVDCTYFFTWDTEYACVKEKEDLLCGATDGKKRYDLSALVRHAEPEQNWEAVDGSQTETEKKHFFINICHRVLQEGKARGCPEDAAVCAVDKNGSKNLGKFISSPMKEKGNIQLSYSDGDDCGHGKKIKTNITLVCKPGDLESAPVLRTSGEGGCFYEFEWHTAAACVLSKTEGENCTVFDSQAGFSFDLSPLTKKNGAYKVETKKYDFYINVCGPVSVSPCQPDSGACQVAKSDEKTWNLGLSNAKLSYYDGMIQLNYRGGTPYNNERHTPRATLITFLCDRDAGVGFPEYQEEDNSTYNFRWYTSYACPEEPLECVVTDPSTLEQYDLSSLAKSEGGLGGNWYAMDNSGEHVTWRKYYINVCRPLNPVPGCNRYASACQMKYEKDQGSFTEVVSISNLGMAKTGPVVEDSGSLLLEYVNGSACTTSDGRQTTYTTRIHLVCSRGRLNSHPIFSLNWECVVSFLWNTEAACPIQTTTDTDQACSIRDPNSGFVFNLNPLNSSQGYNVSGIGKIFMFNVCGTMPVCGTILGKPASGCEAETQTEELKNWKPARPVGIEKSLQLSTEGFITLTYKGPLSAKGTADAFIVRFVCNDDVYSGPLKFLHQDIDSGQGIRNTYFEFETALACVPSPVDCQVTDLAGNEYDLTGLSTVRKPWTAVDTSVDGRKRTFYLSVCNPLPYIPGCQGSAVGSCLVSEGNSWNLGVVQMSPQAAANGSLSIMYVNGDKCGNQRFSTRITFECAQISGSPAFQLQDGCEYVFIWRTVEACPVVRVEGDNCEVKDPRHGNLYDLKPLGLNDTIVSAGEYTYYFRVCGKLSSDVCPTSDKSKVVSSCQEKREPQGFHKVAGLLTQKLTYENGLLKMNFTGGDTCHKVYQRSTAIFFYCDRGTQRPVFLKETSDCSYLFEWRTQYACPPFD

[4] = test system: Jurkat cells; assay: Uptake of IgE-Alexa488 target by omalizumab conjugates in Jurkat cells; type: cell-based
Procedure: The omalizumab conjugates of Example 142 were bound to IgE-Alexa488 (prepared according to Example 144), as follows: equal molar ratios of omalizumab (anti-IgE) conjugate and IgE-Alexa488 were added in tissue culture media for 30 minutes at room temperature. The resulting anti-IgE conjugate:IgE antibody-Alexa488 compositions were added to Jurkat cells (100 k cells/50 ul per well, n=2), and Alexa488 fluorescence levels in the cells were measured at 1 hour by flow cytometry. As the fluorescently labelled target (IgE antibody) accumulates in cells, the fluorescence presents a way to measure total intracellular uptake by cells over time.

[5] = target: T1, CI-M6PR; assay: CI-M6PR SPR binding assay; details: omalizumab conjugates at DAR of about 4
Procedure: The CI-M6PR binding affinities of omalizumab (anti-IgE) conjugates of Table 19 were also assessed via SPR binding assay. […] At equivalent DAR (m) values, the koff rate of the omalizumab (anti-IgE) conjugates was 552>529>570.
Target sequence in this assay (P11717 41-2491): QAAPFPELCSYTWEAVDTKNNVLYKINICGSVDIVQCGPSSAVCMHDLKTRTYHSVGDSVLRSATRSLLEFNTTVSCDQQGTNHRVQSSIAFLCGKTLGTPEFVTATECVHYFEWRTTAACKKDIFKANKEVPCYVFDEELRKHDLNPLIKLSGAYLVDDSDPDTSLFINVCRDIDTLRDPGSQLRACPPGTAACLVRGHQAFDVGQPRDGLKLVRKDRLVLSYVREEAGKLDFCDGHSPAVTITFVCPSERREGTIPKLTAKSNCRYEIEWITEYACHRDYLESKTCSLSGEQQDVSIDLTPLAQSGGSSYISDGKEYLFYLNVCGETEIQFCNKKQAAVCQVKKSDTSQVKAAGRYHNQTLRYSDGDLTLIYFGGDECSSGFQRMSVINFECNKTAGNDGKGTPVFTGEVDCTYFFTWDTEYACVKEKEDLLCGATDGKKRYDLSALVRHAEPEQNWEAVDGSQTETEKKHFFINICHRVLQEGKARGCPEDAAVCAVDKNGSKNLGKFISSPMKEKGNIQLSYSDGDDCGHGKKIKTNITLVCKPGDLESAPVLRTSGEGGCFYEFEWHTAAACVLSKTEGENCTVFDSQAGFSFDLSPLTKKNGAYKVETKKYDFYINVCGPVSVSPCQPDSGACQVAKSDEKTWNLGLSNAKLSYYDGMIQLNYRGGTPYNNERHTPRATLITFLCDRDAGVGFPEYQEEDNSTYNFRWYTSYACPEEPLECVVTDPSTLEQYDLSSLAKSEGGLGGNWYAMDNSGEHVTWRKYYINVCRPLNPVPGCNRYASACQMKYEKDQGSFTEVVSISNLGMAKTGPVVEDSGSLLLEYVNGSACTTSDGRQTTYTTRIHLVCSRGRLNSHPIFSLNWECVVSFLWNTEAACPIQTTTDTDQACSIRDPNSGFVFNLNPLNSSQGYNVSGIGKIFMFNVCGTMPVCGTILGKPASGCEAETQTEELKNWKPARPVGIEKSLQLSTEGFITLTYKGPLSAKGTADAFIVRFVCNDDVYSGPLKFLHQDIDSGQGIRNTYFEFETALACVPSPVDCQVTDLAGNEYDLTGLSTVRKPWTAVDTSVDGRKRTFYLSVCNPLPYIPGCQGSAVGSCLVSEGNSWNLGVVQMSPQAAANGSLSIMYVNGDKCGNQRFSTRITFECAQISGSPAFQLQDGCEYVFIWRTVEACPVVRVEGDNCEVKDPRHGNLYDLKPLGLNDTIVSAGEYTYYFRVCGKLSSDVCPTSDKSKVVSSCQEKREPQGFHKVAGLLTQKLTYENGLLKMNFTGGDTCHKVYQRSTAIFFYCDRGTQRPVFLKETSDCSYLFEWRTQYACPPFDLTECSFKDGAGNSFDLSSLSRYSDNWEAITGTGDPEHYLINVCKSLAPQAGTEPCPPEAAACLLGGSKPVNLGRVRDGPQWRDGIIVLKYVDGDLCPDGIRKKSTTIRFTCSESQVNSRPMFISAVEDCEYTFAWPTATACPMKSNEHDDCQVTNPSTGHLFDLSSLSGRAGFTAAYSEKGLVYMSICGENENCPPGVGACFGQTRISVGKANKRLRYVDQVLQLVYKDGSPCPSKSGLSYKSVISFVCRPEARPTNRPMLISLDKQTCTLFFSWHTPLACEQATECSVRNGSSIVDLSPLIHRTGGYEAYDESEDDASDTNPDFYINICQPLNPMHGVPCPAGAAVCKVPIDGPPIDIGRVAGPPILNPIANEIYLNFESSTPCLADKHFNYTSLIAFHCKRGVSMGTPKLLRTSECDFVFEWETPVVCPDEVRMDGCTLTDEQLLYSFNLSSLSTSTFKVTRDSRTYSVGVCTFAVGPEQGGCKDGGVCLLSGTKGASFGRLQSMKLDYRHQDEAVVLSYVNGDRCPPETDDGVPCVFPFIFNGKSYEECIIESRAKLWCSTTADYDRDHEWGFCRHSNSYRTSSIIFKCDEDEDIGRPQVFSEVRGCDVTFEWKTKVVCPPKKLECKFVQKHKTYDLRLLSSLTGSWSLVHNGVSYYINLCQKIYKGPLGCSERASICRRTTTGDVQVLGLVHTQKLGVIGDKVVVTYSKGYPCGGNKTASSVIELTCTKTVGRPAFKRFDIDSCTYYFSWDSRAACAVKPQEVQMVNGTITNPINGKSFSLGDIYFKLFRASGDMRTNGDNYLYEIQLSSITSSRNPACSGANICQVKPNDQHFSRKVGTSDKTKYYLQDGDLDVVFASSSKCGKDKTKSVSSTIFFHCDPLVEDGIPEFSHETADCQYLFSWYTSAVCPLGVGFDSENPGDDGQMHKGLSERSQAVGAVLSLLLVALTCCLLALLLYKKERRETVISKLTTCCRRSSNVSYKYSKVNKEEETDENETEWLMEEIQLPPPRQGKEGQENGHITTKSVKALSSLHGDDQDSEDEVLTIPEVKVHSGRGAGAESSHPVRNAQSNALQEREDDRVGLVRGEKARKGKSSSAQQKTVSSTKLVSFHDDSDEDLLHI

[6] = test system: Hep G2 cells; assay: Conjugate-mediated uptake of IgG2a into Hep G2 cells; type: cell-based, human; details: one hour incubation, FIG. 13; 816 DAR6, 817 DAR4, 520 (I-7) DAR4
Procedure: as §1
The uptake of antibody conjugates of exemplary M6PR or ASGPR binding compounds was assessed in Hep G2 cells, using a method similar to that described in Example above. […] Compounds 816 and 817 were prepared according to methods described in International Application No. PCT/US2021/012846, filed Jan. 8, 2021.

[7] = test system: wild type (WT) K562 cells; assay: CI-M6PR mediated uptake of Alexa488-IgE in wild type K562 cells; type: cell-based; details: omalizumab conjugates, average loading DAR9, FIG. 14
Procedure: The uptake of exemplary omalizumab (anti-IgE) antibody conjugates of compound 520 (I-7) (average loading DAR9) versus exemplary compound 537 (I-66) (average loading DAR9) was assessed in wild type (WT) K562 cells and CI-M6PR knockout (KO) cells using a similar method of that described above.

[8] = target: T2, M6PR (Domains I-9, R&D Systems) (Homo sapiens, UniProt P11717); assay: General M6PR binding assay (fluorescence polarization); details: Table 16F, unconjugated compounds, 100 nM M6PR, 1 nM probe, 2 hr incubation
T2 construct: with 100 nM M6PR (Domains I-9, R&D Systems) and 1 nM probe; purchased R&D Systems
T2 sequence (P11717 41-1365 limits assumed): as the sequence (P11717 41-1365 limits assumed) above
Procedure: M6PR binding was measured in black 96-well plates using a fluorescence polarization assay. A fluorescent probe consisting of a reference M6Pn ligand linked to Cy5 was synthesized. Test compounds were resuspended in DMSO and 3-fold serial dilutions were made at 100× final concentrations. Binding reactions were conducted in 100 μl final volume in 20 mM HEPES (pH 7.5) 100 mM NaCl 0.015% Tween-20 1% DMSO with 100 nM M6PR (Domains I-9, R&D Systems) and 1 nM probe. Fluorescence polarization was measured using Xex=620 nm, λem=688 nm on an Envision plate reader (Perkin Elmer) after 2 hr incubation time. Dose responses were conducted in duplicate and normalized to the response with DMSO (high) and 1 μM reference compound (low) on each plate. IC50 values were determined by fitting to 4-parameter curves in GraphPad Prism.

[9] = Table 16E, conjugate, m average DAR 9.5, read-out: EC50 in M6PR binding assay for conjugates of monovalent compounds of varying linker length and loading
[10] = antibody conjugate, average loading DAR 9.5, read-out: EC50 (nM) in M6PR binding assay
[11] = antibody conjugate, average loading DAR 9, read-out: EC50 (nM) in M6PR binding assay

SMILES: O=C(CCN1C(=O)C=CC1=O)NCCOCCOCCOCCn1cc(CCO[C@H]2O[C@H](CCP(=O)(O)O)[C@@H](O)[C@H](O)[C@@H]2O)nn1 [Compound I-10]
half-life in mice [1]: longer half-life | intracellular uptake of IgG2a-Alexa488 into Jurkat cells ([2]; anti-IgG2a conjugates, 1 h and 24 h (FIGS. 9-10)): sufficiently robust uptake | binding affinity to M6PR compared to Compound I-7 ([3]; conjugates of ligand linkers): weaker binding affinity to M6PR compared to Compound I-7; also recorded: weaker binding affinity to M6PR than Compound I-7

SMILES: O=C(NCCCCc1cn(CCOCCOCCOCCOCCC(=O)Oc2c(F)c(F)c(F)c(F)c2F)nn1)Nc1ccc(O[C@H]2O[C@H](CCP(=O)(O)O)[C@@H](O)[C@H](O)[C@@H]2O)cc1 [529 (I-38)]
uptake into Jurkat cells (cell fluorescence vs conjugate concentration) ([2]; one hour incubation, FIG. 12): strong cell uptake | EC50 [3, 9]: 0.19 nM | EC50 [3, 10]: 0.19 nM | relative cellular uptake activity of IgE-Alexa488, omalizumab conjugates of Table 15A ([4]; 1 hour, FIGS. 15-17): comparable activity to a thiourea Z^3 analog (520 (I-7) with m=4)

SMILES: O=C(CCCCCc1cn(CCOCCOCCOCCOCCC(=O)Oc2c(F)c(F)c(F)c(F)c2F)nn1)Nc1ccc(O[C@H]2O[C@H](CCP(=O)(O)O)[C@@H](O)[C@H](O)[C@@H]2O)cc1 [513 (I-39)]
uptake into Jurkat cells (cell fluorescence vs conjugate concentration) ([2]; one hour incubation, FIG. 12): strong cell uptake | EC50 [3, 11]: 0.19 nM

SMILES: C[C@H](NC(=O)CCCn1cc(CCCCNC(=S)Nc2ccc(O[C@H]3O[C@H](CCP(=O)(O)O)[C@@H](O)[C@H](O)[C@@H]3O)cc2)nn1)C(=O)N[C@@H](C)C(=O)N[C@@H](C)C(=O)NCCOCCOCCOCCOCCC(=O)Oc1c(F)c(F)c(F)c(F)c1F [528 (I-51)]
uptake into Jurkat cells, average loading DAR9 versus DAR2 ([2]; one hour incubation, FIG. 12): greater uptake | uptake into Jurkat cells (cell fluorescence vs conjugate concentration) ([2]; one hour incubation, FIG. 12): strong cell uptake | EC50 ([3]; EC50 in M6PR binding assay for conjugates of compounds of varying multivalency, Table 16D, conjugate, m average loading DAR 2): 2.23 nM | EC50 ([3]; EC50 in M6PR binding assay for conjugates of monovalent compounds of varying linker length and loading, Table 16E, conjugate, m average DAR 2): 2.23 nM | EC50 ([3]; Table 16B, antibody conjugate, average loading DAR 8, read-out: EC50 in M6PR binding assay): 0.3 nM | EC50 ([3]; Table 16D, conjugate, m average loading DAR 9.5, read-out: EC50 in M6PR binding assay for conjugates of compounds of varying multivalency): 0.2 nM | EC50 [3, 9]: 0.2 nM | EC50 [3, 10]: 0.2 nM

SMILES: O=C(NCCCCc1cn(CCOCCOCCOCCOCCC(=O)Oc2c(F)c(F)c(F)c(F)c2F)nn1)Nc1ccc(S[C@@H]2O[C@H](CCP(=O)(O)O)[C@@H](O)[C@H](O)[C@@H]2O)cc1 [Compound 570]
Kd (CI-M6PR binding affinity by SPR), relative [5]: superior Kd relative to corresponding α-O (529) and α-S-glycosides (552) | relative cellular uptake activity of IgE-Alexa488, omalizumab conjugates of Table 15B ([4]; 1 hour, FIGS. 18-21): superior activity to conjugates having a α-S-glycoside configuration (552), and to a conjugate having an α-O-glycoside configuration (520 (I-7), m=8) | relative cellular uptake activity of IgE-Alexa488, omalizumab conjugates of Table 19 ([4]; FIG. 23, entire dose response range): superior activity to the corresponding conjugates of α-O-glycoside (529) and α-S-glycoside (552)

SMILES: O=C(CCOCCOCCOCCOCCn1cc(CCCCNC(=S)Nc2ccc(O[C@H]3O[C@H](CCP(=O)(O)O)[C@@H](O)[C@H](O)[C@@H]3O)cc2)nn1)Oc1c(F)c(F)c(F)c(F)c1F [520 (I-7)]
EC50 ([3]; Table 16B, antibody conjugate, average loading DAR 4, read-out: EC50 in M6PR binding assay): 0.41 nM | EC50 ([3]; Table 16C, cetuximab (anti-EGFR) conjugate, average loading DAR 8, read-out: EC50 in M6PR binding assay): 0.41 nM | EC50 ([3]; Table 16D, conjugate, m average loading DAR 2, read-out: EC50 in M6PR binding assay for conjugates of compounds of varying multivalency): 3.71 nM | EC50 ([3]; Table 16D, conjugate, m average loading DAR 4, read-out: EC50 in M6PR binding assay for conjugates of compounds of varying multivalency): 0.3 nM | EC50 ([3]; Table 16D, conjugate, m average loading DAR 9, read-out: EC50 in M6PR binding assay for conjugates of compounds of varying multivalency): 0.23 nM | EC50 ([3]; Table 16E, conjugate, m average DAR 2, read-out: EC50 in M6PR binding assay for conjugates of monovalent compounds of varying linker length and loading): 3.71 nM | EC50 ([3]; Table 16E, conjugate, m average DAR 4, read-out: EC50 in M6PR binding assay for conjugates of monovalent compounds of varying linker length and loading): 0.3 nM | EC50 ([3]; Table 16E, conjugate, m average DAR 9, read-out: EC50 in M6PR binding assay for conjugates of monovalent compounds of varying linker length and loading): 0.23 nM | EC50 ([3]; antibody conjugate, average loading DAR 2, read-out: EC50 (nM) in M6PR binding assay): 2.6 nM | EC50 ([3]; antibody conjugate, average loading DAR 4, read-out: EC50 (nM) in M6PR binding assay): 0.22 nM | EC50 [3, 11]: 0.22 nM | binding affinity to M6PR, rank among conjugates tested (FIGS. 7A-7F) ([3]; matuzumab conjugates, I-7 at d8 (DAR 8), I-11 at d4 (DAR 4)): highest | uptake into HepG2 cells [6]: comparable HepG2 cellular uptake | cell uptake of Alexa488-IgE target, WT K562 versus CI-M6PR KO cells [7]: CI-M6PR dependent

IC50 [8]: ≤ 50 nM
SMILES: CC(=O)N[C@@H](CCCCn1cc(CCCCNC(=O)Nc2ccc(O[C@H]3O[C@H](CCP(=O)(O)O)[C@@H](O)[C@H](O)[C@@H]3O)cc2)nn1)C(=O)N[C@@H](CCCCn1cc(CCCCNC(=O)Nc2ccc(O[C@H]3O[C@H](CCP(=O)(O)O)[C@@H](O)[C@H](O)[C@@H]3O)cc2)nn1)C(=O)NCCOCCOCCOCCOCCC(=O)N[C@@H](CCCCn1cc(CCCCNC(=O)Nc2ccc(O[C@H]3O[C@H](CCP(=O)(O)O)[C@@H](O)[C@H](O)[C@@H]3O)cc2)nn1)C(=O)N[C@@H](CCCCn1cc(CCCCNC(=O)Nc2ccc(O[C@H]3O[C@H](CCP(=O)(O)O)[C@@H](O)[C@H](O)[C@@H]3O)cc2)nn1)C(=O)NCCOCCOCCOCCOCCC(=O)O [Compound 770]
